# Measured values taken from patent publication US4962119A, “Triazole derivatives of fenamates as antiinflammatory agents” (Warner-Lambert Company, priority 1989, dated 1990).
# Tested on: 5-Lipoxygenase
# Assay: ARBL whole cell 5-lipoxygenase assay (inhibition of LTB4 formation in RBL-1 cells, RIA)
# Assay type: cell-based, rat
# Conditions: calcium ionophore A23187 (5 μM)
# From the text: ARBL/ARBC Whole Cell 5-Lipoxygenase and Cyclcoxygenase Assays
# Cells are harvested by centrifugation.
compound,measurement,value
"FC(F)(F)c1cccc(Nc2ccccc2-c2n[nH]c(=S)[nH]2)c1 [Example 4, 5-[2-[(3-trifluoromethylphenyl)amino]phenyl]-2,4-dihydro-3H-1,2,4-triazole-3-thione]",ARBL: % inhibition of LTB4 at 16 μM,N (Less than 40% inhibiton)
